PubChem BioAssay AID330 (DTP/NCI, 2004)
Values joined by “and” are separate entries in the source; they are usually repeats but may differ in a detail not shown here. Identical values can stand only once. Inconclusive results and toxic doses are left out. The calls were made as follows: active = survival T/C of 150% or more; inactive = T/C below 125% in these data.

Tested on: P388 leukemia ip, CD2F1 mice, survival T/C
Experiment: NCI In Vivo Anticancer Drug Screen. Data for tumor model P388 Leukemia (intraperitoneal) in CD2F1 (CDF1) mice
Settings: endpoint: median survival time, higher = longer survival
Outline: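 Mice carrying the transplanted tumor received test compound or vehicle. Survival was recorded in each group, and the value is the treated-group measurement divided by that of the vehicle-treated control group.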

[1] = dose: 50.0 mg/kg/injection, schedule: Q01DX005 (ip), vehicle: saline with Tween-80
[2] = dose: 100.0 mg/kg/injection, schedule: Q01DX005 (ip), vehicle: saline with Tween-80
[3] = dose: 200.0 mg/kg/injection, schedule: Q01DX005 (ip), vehicle: saline with Tween-80
[4] = dose: 50.0 mg/kg/injection, schedule: Q01DX005 (ip), vehicle: saline
[5] = dose: 100.0 mg/kg/injection, schedule: Q01DX005 (ip), vehicle: saline
[6] = dose: 200.0 mg/kg/injection, schedule: Q01DX005 (ip), vehicle: saline
[7] = dose: 50.0 mg/kg/injection, schedule: Q04DX003 (ip), vehicle: saline with Tween-80
[8] = dose: 100.0 mg/kg/injection, schedule: Q04DX003 (ip), vehicle: saline with Tween-80
[9] = dose: 200.0 mg/kg/injection, schedule: Q04DX003 (ip), vehicle: saline with Tween-80
[10] = dose: 100.0 mg/kg/injection, schedule: Q01DX001 (ip), vehicle: saline with Tween-80
[11] = dose: 200.0 mg/kg/injection, schedule: Q01DX001 (ip), vehicle: saline with Tween-80
[12] = dose: 400.0 mg/kg/injection, schedule: Q01DX001 (ip), vehicle: saline with Tween-80
[13] = dose: 50.0 mg/kg/injection, schedule: Q01DX005 (ip), vehicle: Klucel (hydroxypropylcellulose) (HPC)
[14] = dose: 100.0 mg/kg/injection, schedule: Q01DX005 (ip), vehicle: Klucel (hydroxypropylcellulose) (HPC)
[15] = dose: 200.0 mg/kg/injection, schedule: Q01DX005 (ip), vehicle: Klucel (hydroxypropylcellulose) (HPC)
[16] = dose: 50.0 mg/kg/injection, schedule: Q01DX001 (ip), vehicle: Klucel (hydroxypropylcellulose) (HPC)
[17] = dose: 60.0 mg/kg/injection, schedule: Q01DX005 (ip), vehicle: saline with Tween-80
[18] = dose: 25.0 mg/kg/injection, schedule: Q01DX009 (ip), vehicle: saline with Tween-80
[19] = dose: 50.0 mg/kg/injection, schedule: Q01DX009 (ip), vehicle: saline with Tween-80
[20] = dose: 100.0 mg/kg/injection, schedule: Q01DX009 (ip), vehicle: saline with Tween-80
[21] = dose: 60.0 mg/kg/injection, schedule: Q01DX005 (ip), vehicle: saline
[22] = dose: 120.0 mg/kg/injection, schedule: Q01DX005 (ip), vehicle: saline
[23] = dose: 240.0 mg/kg/injection, schedule: Q01DX005 (ip), vehicle: saline
[24] = dose: 25.0 mg/kg/injection, schedule: Q01DX009 (ip), vehicle: water
[25] = dose: 50.0 mg/kg/injection, schedule: Q01DX009 (ip), vehicle: water

Measured: T/C

CC1(C)OC2C3CC(C2O1)C1C3C2(Cl)CC1(Cl)C(Cl)=C2Cl (stereo not given)
inactive: [1] 106 % of control | [2] 99 % of control | [3] 101 % of control

CCN(CC)CCCOc1ncnc2ccc(Cl)cc12
inactive: dose: 25.0 mg/kg/injection, schedule: Q01DX005 (ip), vehicle: saline 98 % of control | [4] 99 % of control | [5] 93 % of control | [6] 96 % of control

C/C(=N\N=C(\[Se])N1CCN(c2ccccn2)CC1)c1ccccn1
inactive: dose: 12.5 mg/kg/injection, schedule: Q04DX003 (ip), vehicle: saline with Tween-80 108 % of control | dose: 25.0 mg/kg/injection, schedule: Q04DX003 (ip), vehicle: saline with Tween-80 109 % of control and 116 % of control | [7] 113 % of control | [8] 115 % of control and 124 % of control | [9] 115 % of control

CCN(CC)N=Nc1ccc(NC(C)=O)cc1
inactive: dose: 6.25 mg/kg/injection, schedule: Q04DX003 (ip), vehicle: Klucel (hydroxypropylcellulose) (HPC) 102 % of control | dose: 12.5 mg/kg/injection, schedule: Q04DX003 (ip), vehicle: Klucel (hydroxypropylcellulose) (HPC) 101 % of control | dose: 25.0 mg/kg/injection, schedule: Q04DX003 (ip), vehicle: Klucel (hydroxypropylcellulose) (HPC) 102 % of control

CCNC(=O)CCC(NS(=O)(=O)c1ccc(NC(=O)c2ccc(Cl)cc2)cc1)C(=O)O (stereo not given)
inactive: [1] 107 % of control | [2] 104 % of control | [3] 102 % of control

O=C(O)c1ccc(C(=O)NCCCN(CCCCN(CCCNC(=O)c2ccc(C(=O)O)c(O)c2O)C(=O)c2ccc(C(=O)O)c(O)c2O)C(=O)c2ccc(C(=O)O)c(O)c2O)c(O)c1O
inactive: [4] 99 % of control | [5] 101 % of control | [6] 99 % of control

CC(=O)OCC1OC(n2ccc3c(=O)[nH]c(=O)[nH]c32)C(OC(C)=O)C(OC(C)=O)C1OC(C)=O (stereo not given)
inactive: [10] 104 % of control | [11] 99 % of control | [12] 100 % of control

COC(=O)C1=C(C(=O)OC)P2(c3ccccc3)(c3ccccc3)N(C)C(=S)N2C1(c1ccccc1)c1ccccc1
inactive: [13] 103 % of control | [14] 105 % of control | [15] 90 % of control

N#CCCSC(=S)C1CCCCC1=N (stereo not given)
inactive: dose: 50.0 mg/kg/injection, schedule: Q01DX009 (ip), vehicle: saline + alcohol 109 % of control | dose: 100.0 mg/kg/injection, schedule: Q01DX009 (ip), vehicle: saline + alcohol 111 % of control | dose: 200.0 mg/kg/injection, schedule: Q01DX009 (ip), vehicle: saline + alcohol 109 % of control

NC1(c2ccccc2)CC2CCC1C2 (stereo not given)
inactive: dose: 12.5 mg/kg/injection, schedule: Q01DX001 (ip), vehicle: Klucel (hydroxypropylcellulose) (HPC) 100 % of control | dose: 25.0 mg/kg/injection, schedule: Q01DX001 (ip), vehicle: Klucel (hydroxypropylcellulose) (HPC) 100 % of control | [16] 100 % of control

CCC(CC)C1NC(C(CC)CC)N2C(C(CC)CC)N12 (stereo not given)
inactive: [16] 103 % of control | dose: 100.0 mg/kg/injection, schedule: Q01DX001 (ip), vehicle: Klucel (hydroxypropylcellulose) (HPC) 104 % of control | dose: 200.0 mg/kg/injection, schedule: Q01DX001 (ip), vehicle: Klucel (hydroxypropylcellulose) (HPC) 101 % of control

O=C(O)/C=C(O)/C=C/c1ccccc1
inactive: [8] 92 % of control | [9] 101 % of control | dose: 400.0 mg/kg/injection, schedule: Q04DX003 (ip), vehicle: saline with Tween-80 101 % of control

CC(=O)OC(C(=O)O)C(OC(C)=O)C(OC(C)=O)C(=O)O (stereo not given)
inactive: dose: 50.0 mg/kg/injection, schedule: Q01DX009 (ip), vehicle: saline 98 % of control | dose: 100.0 mg/kg/injection, schedule: Q01DX009 (ip), vehicle: saline 101 % of control | dose: 200.0 mg/kg/injection, schedule: Q01DX009 (ip), vehicle: saline 95 % of control

Cc1cccc2c(=O)[nH]c(=O)[nH]c12
inactive: [13] 93 % of control | [14] 89 % of control | [15] 89 % of control

O=C(c1ccccc1)c1ccccc1NCC(O)COc1ccc(Cl)cc1 (stereo not given)
inactive: [17] 88 % of control and 96 % of control | dose: 120.0 mg/kg/injection, schedule: Q01DX005 (ip), vehicle: saline with Tween-80 100 % of control | dose: 240.0 mg/kg/injection, schedule: Q01DX005 (ip), vehicle: saline with Tween-80 99 % of control

Cc1ccc(C)c(N=Nc2ccc(O)cc2)c1
inactive: [18] 100 % of control | [19] 109 % of control | [7] 104 % of control | [20] 100 % of control | [8] 100 % of control

C[N+](C)(C)c1ncnc2c1ncn2C1CC(O)C(CO)O1 (stereo not given)
inactive: [4] 95 % of control | [5] 98 % of control | [6] 101 % of control

CC1C(=O)C23CC1CCC2C12COC(=O)C1C(C)(C)C(=O)CC2OC3=O (stereo not given)
inactive: dose: 50.0 mg/kg/injection, schedule: Q04DX002 (ip), vehicle: saline with Tween-80 105 % of control | dose: 100.0 mg/kg/injection, schedule: Q04DX002 (ip), vehicle: saline with Tween-80 93 % of control | dose: 200.0 mg/kg/injection, schedule: Q04DX002 (ip), vehicle: saline with Tween-80 94 % of control

NOCc1cccc(Cl)c1
inactive: [18] 87 % of control | [20] 87 % of control

COC(C(=O)CN(C)C)(c1ccccc1)c1ccccc1
inactive: [21] 107 % of control | [22] 99 % of control | [23] 105 % of control

CC1CC(C)(C)C2=NCCN21 (stereo not given)
inactive: dose: 6.25 mg/kg/injection, schedule: Q01DX009 (ip), vehicle: water 105 % of control | dose: 12.5 mg/kg/injection, schedule: Q01DX009 (ip), vehicle: water 100 % of control | dose: 15.0 mg/kg/injection, schedule: Q01DX005 (ip), vehicle: saline 106 % of control | [24] 107 % of control | dose: 30.0 mg/kg/injection, schedule: Q01DX005 (ip), vehicle: saline 106 % of control | [25] 107 % of control | [21] 99 % of control and 100 % of control

C[CH2][Sn]([CH2]C)([O]C(=O)c1ccc2c(c1)OC(C)(C)O2)[O]C(=O)c1ccc2c(c1)OC(C)(C)O2
inactive: dose: 6.25 mg/kg/injection, schedule: Q01DX005 (ip), vehicle: Klucel (hydroxypropylcellulose) (HPC) 117 % of control | dose: 12.5 mg/kg/injection, schedule: Q01DX005 (ip), vehicle: Klucel (hydroxypropylcellulose) (HPC) 116 % of control | dose: 25.0 mg/kg/injection, schedule: Q01DX005 (ip), vehicle: Klucel (hydroxypropylcellulose) (HPC) 120 % of control | [13] 124 % of control

c1ccc(C2Oc3ccccc3-c3nc4ccccc4cc32)cc1 (stereo not given)
inactive: [1] 106 % of control | [2] 111 % of control | [3] 100 % of control

CCN(CC)C1=C(C)C(=O)[C@]2([Si](C)(C)C)[C@](OC)(c3ccc(C(F)(F)F)cc3)[C@]12[Si](C)(C)C
inactive: [10] 101 % of control | [11] 100 % of control | [12] 97 % of control

COC(=O)C1=C(O)C(C(=O)OC)C2C(C(=O)OC)=C(O)C(C(=O)OC)C12 (stereo not given)
inactive: [13] 97 % of control | [14] 103 % of control | [15] 92 % of control

O=C1NC2CC1C(O)C2O (stereo not given)
inactive: [21] 101 % of control | [22] 101 % of control | [23] 100 % of control

CC1COS(=O)(=O)CS(=O)(=O)O1 (stereo not given)
inactive: [17] 100 % of control

CN(CC(=O)NC(Cc1c[nH]c2ccccc12)C(=O)O)C(=O)OCc1ccccc1 (stereo not given)
inactive: [1] 96 % of control | [2] 102 % of control | [3] 98 % of control

O=NNc1ccc2cc3ccc(NN=O)cc3nc2c1
inactive: [24] 122 % of control | [25] 106 % of control and 97 % of control

O=[N+]([O-])c1ccc(Cl)c2c([N+](=O)[O-])cccc12
inactive: [19] 102 % of control | [20] 110 % of control
